From article PMC9817970 (Cancers, 2022)

Tests used:
Test in all cases: Kinase panel profiling
Type in all cases: biochemical
Conditions in all cases: 10 μM ATP
ITK = molecular target: T1, ITK (Homo sapiens, UniProt Q08881)
T1 construct: purchased Reaction Biology Corp
Protocol: (§1) Kinase panel profiling was conducted by Reaction Biology Corp. (San Diego, CA, USA). A single dose (1.0 μM) of 6r was tested against 371 recombinant human kinases in the presence of 10 μM ATP.

ERK7/MAPK15 = molecular target: T2, ERK7/MAPK15 (Homo sapiens, UniProt Q8TD08)
T2 construct: purchased Reaction Biology Corp
Protocol: as §1

MKK6 = molecular target: T3, MKK6 (Homo sapiens, UniProt P52564)
T3 construct: purchased Reaction Biology Corp
Protocol: as §1

YES/YES1 = molecular target: T4, YES/YES1 (Homo sapiens, UniProt P07947)
T4 construct: purchased Reaction Biology Corp
Protocol: as §1

ERK2/MAPK1 = molecular target: T5, ERK2/MAPK1 (Homo sapiens, UniProt P28482)
T5 construct: purchased Reaction Biology Corp
Protocol: as §1

EPHA8 = molecular target: T6, EPHA8 (Homo sapiens, UniProt P29322)
T6 construct: purchased Reaction Biology Corp
Protocol: as §1

HIPK4 = molecular target: T7, HIPK4 (Homo sapiens, UniProt Q8NE63)
T7 construct: purchased Reaction Biology Corp
Protocol: as §1

PIM3 = molecular target: T8, PIM3 (Homo sapiens, UniProt Q86V86)
T8 construct: purchased Reaction Biology Corp
Protocol: as §1

ROCK1 = molecular target: T9, ROCK1 (Homo sapiens, UniProt Q13464)
T9 construct: purchased Reaction Biology Corp
Protocol: as §1

FLT3 = molecular target: T10, FLT3 (Homo sapiens, UniProt P36888)
T10 construct: purchased Reaction Biology Corp
Protocol: as §1

AURORA B = molecular target: T11, AURORA B (Homo sapiens, UniProt Q96GD4)
T11 construct: purchased Reaction Biology Corp
Protocol: as §1

SRPK2 = molecular target: T12, SRPK2 (Homo sapiens, UniProt P78362)
T12 construct: purchased Reaction Biology Corp
Protocol: as §1

MELK = molecular target: T13, MELK (Homo sapiens, UniProt Q14680)
T13 construct: purchased Reaction Biology Corp
Protocol: as §1

NEK5 = molecular target: T14, NEK5 (Homo sapiens, UniProt Q6P3R8)
T14 construct: purchased Reaction Biology Corp
Protocol: as §1

DLK/MAP3K12 = molecular target: T15, DLK/MAP3K12 (Homo sapiens, UniProt Q12852)
T15 construct: purchased Reaction Biology Corp
Protocol: as §1

NEK9 = molecular target: T16, NEK9 (Homo sapiens, UniProt Q8TD19)
T16 construct: purchased Reaction Biology Corp
Protocol: as §1

CDK1/cyclin B = molecular target: T17, CDK1/cyclin B (Homo sapiens, UniProt P06493)
T17 construct: purchased Reaction Biology Corp
Protocol: as §1

SNRK = molecular target: T18, SNRK (Homo sapiens, UniProt Q9NRH2)
T18 construct: purchased Reaction Biology Corp
Protocol: as §1

CK2a2 = molecular target: T19, CK2a2 (Homo sapiens, UniProt P19784)
T19 construct: purchased Reaction Biology Corp
Protocol: as §1

CDK3/cyclin E2 = molecular target: T20, CDK3/cyclin E2 (Homo sapiens, UniProt Q00526)
T20 construct: purchased Reaction Biology Corp
Protocol: as §1

MST4 = molecular target: T21, MST4 (Homo sapiens, UniProt Q9P289)
T21 construct: purchased Reaction Biology Corp
Protocol: as §1

EPHB2 = molecular target: T22, EPHB2 (Homo sapiens, UniProt P29323)
T22 construct: purchased Reaction Biology Corp
Protocol: as §1

PDGFRa = molecular target: T23, PDGFRa (Homo sapiens, UniProt P16234)
T23 construct: purchased Reaction Biology Corp
Protocol: as §1

STK22D/TSSK1 = molecular target: T24, STK22D/TSSK1 (Homo sapiens, UniProt Q9BXA7)
T24 construct: purchased Reaction Biology Corp
Protocol: as §1

CHK1 = molecular target: T25, CHK1 (Homo sapiens, UniProt O14757)
T25 construct: purchased Reaction Biology Corp
Protocol: as §1

TIE2/TEK = molecular target: T26, TIE2/TEK (Homo sapiens, UniProt Q02763)
T26 construct: purchased Reaction Biology Corp
Protocol: as §1

PKCa = molecular target: T27, PKCa (Homo sapiens, UniProt P17252)
T27 construct: purchased Reaction Biology Corp
Protocol: as §1

MEK2 = molecular target: T28, MEK2 (Homo sapiens, UniProt P36507)
T28 construct: purchased Reaction Biology Corp
Protocol: as §1

FLT4/VEGFR3 = molecular target: T29, FLT4/VEGFR3 (Homo sapiens, UniProt P35916)
T29 construct: purchased Reaction Biology Corp
Protocol: as §1

NEK6 = molecular target: T30, NEK6 (Homo sapiens, UniProt Q9HC98)
T30 construct: purchased Reaction Biology Corp
Protocol: as §1

CAMK1a = molecular target: T31, CAMK1a (Homo sapiens, UniProt Q14012)
T31 construct: purchased Reaction Biology Corp
Protocol: as §1

RON/MST1R = molecular target: T32, RON/MST1R (Homo sapiens, UniProt Q04912)
T32 construct: purchased Reaction Biology Corp
Protocol: as §1

TXK = molecular target: T33, TXK (Homo sapiens, UniProt P42681)
T33 construct: purchased Reaction Biology Corp
Protocol: as §1

CK1G3 = molecular target: T34, CK1G3 (Homo sapiens, UniProt Q9Y6M4)
T34 construct: purchased Reaction Biology Corp
Protocol: as §1

IGF1R = molecular target: T35, IGF1R (Homo sapiens, UniProt P08069)
T35 construct: purchased Reaction Biology Corp
Protocol: as §1

MINK/MINK1 = molecular target: T36, MINK/MINK1 (Homo sapiens, UniProt Q8N4C8)
T36 construct: purchased Reaction Biology Corp
Protocol: as §1

EPHA6 = molecular target: T37, EPHA6 (Homo sapiens, UniProt Q9UF33)
T37 construct: purchased Reaction Biology Corp
Protocol: as §1

HGK/MAP4K4 = molecular target: T38, HGK/MAP4K4 (Homo sapiens, UniProt O95819)
T38 construct: purchased Reaction Biology Corp
Protocol: as §1

CDK9/cyclin T2 = molecular target: T39, CDK9/cyclin T2 (Homo sapiens, UniProt P50750)
T39 construct: purchased Reaction Biology Corp
Protocol: as §1

PKAcg = molecular target: T40, PKAcg (Homo sapiens, UniProt P22612)
T40 construct: purchased Reaction Biology Corp
Protocol: as §1

CDK3/cyclin E = molecular target: T41, CDK3/cyclin E (Homo sapiens, UniProt Q00526)
T41 construct: purchased Reaction Biology Corp
Protocol: as §1

P38a/MAPK14 = molecular target: T42, P38a/MAPK14 (Homo sapiens, UniProt Q16539)
T42 construct: purchased Reaction Biology Corp
Protocol: as §1

T3 sequence (P52564 whole entry): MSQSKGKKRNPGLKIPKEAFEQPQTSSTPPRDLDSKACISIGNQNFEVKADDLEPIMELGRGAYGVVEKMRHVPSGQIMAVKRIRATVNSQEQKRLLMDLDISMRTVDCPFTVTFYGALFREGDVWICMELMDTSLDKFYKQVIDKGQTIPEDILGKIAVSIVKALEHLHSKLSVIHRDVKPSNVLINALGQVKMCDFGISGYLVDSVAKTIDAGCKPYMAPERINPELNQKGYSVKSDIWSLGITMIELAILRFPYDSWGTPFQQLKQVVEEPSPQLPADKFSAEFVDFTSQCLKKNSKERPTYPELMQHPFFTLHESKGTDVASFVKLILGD
T26 sequence (Q02763 23-1124): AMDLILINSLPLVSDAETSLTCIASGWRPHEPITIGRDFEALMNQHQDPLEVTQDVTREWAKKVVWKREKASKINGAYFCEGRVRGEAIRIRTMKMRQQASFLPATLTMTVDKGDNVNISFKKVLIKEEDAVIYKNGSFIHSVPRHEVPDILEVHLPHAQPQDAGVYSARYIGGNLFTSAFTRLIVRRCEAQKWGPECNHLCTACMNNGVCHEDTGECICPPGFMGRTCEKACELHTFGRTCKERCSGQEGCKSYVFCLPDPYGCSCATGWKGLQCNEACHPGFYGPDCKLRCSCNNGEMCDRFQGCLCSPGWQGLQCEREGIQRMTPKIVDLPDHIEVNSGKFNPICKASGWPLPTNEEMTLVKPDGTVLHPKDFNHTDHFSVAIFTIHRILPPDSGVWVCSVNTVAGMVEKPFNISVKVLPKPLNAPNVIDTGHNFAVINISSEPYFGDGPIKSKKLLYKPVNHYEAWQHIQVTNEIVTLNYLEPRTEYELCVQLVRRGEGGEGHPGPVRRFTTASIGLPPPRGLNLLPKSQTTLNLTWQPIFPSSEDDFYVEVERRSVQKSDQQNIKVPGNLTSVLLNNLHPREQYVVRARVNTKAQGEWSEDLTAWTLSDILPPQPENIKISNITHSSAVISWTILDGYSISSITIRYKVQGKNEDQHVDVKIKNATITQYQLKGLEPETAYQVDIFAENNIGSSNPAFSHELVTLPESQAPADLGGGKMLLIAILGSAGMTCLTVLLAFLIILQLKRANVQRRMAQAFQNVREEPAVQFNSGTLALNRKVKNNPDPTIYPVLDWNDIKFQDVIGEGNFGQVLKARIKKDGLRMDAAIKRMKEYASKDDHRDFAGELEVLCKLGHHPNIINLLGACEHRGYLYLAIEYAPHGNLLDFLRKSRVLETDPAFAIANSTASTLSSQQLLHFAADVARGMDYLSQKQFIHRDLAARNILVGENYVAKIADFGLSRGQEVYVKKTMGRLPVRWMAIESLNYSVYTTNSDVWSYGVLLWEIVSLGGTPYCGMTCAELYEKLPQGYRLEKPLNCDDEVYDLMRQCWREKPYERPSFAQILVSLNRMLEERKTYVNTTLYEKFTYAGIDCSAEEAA
T4 sequence (P07947 whole entry): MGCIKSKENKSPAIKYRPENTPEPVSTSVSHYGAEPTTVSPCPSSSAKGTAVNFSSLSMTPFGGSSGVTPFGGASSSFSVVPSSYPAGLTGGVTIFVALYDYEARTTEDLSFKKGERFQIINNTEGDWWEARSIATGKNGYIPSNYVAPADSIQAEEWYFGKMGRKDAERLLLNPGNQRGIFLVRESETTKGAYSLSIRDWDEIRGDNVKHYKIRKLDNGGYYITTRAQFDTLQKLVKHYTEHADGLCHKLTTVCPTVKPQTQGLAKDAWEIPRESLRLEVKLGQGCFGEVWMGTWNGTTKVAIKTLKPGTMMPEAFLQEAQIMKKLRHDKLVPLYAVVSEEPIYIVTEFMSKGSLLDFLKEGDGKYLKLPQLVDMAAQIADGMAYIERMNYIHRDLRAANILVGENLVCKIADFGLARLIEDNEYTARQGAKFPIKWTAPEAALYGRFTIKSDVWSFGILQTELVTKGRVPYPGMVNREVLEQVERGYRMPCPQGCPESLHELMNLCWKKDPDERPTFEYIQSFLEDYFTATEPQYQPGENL
T15 sequence (Q12852 whole entry): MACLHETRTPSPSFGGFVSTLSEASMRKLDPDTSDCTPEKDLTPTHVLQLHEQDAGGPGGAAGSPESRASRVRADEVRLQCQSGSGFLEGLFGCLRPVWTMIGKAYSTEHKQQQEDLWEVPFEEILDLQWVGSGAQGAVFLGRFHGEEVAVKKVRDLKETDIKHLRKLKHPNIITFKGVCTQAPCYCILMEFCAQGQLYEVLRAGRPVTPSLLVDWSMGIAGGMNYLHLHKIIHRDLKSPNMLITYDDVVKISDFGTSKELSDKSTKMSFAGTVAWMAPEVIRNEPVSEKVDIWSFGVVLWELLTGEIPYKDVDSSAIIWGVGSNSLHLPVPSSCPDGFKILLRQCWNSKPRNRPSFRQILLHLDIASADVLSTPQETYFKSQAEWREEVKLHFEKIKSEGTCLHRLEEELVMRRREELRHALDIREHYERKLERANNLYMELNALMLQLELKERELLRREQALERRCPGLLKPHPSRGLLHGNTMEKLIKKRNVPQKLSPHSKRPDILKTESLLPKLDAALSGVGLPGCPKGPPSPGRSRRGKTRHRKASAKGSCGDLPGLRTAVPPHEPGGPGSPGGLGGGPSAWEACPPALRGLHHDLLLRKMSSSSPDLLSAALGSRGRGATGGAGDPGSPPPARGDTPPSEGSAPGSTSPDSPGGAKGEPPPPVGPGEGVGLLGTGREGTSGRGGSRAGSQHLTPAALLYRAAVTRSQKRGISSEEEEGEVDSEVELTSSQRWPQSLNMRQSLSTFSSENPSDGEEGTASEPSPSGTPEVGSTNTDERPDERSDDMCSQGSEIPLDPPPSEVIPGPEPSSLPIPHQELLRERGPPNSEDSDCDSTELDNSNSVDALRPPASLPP
T30 sequence (Q9HC98 whole entry): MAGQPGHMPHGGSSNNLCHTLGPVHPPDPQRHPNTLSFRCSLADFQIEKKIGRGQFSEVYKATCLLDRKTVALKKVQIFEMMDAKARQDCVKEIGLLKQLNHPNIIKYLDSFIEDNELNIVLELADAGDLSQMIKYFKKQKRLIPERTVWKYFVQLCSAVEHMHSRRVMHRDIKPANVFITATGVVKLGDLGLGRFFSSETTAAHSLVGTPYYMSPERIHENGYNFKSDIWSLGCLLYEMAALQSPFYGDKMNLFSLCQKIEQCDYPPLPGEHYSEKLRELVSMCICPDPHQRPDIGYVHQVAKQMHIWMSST
T12 sequence (P78362 whole entry): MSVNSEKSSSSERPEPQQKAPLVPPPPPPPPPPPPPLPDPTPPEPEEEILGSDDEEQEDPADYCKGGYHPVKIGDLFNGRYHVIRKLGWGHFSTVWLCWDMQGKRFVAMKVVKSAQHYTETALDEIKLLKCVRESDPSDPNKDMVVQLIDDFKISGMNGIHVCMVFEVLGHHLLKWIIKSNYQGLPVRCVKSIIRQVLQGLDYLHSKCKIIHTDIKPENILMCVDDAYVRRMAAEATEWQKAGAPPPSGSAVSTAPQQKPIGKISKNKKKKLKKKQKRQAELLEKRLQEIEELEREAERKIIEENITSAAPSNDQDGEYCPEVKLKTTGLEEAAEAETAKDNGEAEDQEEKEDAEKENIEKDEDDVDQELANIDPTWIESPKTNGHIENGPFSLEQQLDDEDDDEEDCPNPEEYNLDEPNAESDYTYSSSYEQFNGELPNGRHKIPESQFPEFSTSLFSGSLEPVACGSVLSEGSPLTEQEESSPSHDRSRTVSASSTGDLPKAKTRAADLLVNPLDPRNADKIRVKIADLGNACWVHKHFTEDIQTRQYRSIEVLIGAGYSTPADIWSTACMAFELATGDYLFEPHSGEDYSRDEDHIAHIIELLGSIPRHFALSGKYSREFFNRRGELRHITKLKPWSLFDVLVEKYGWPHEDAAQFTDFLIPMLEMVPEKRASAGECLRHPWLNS
T19 sequence (P19784 whole entry): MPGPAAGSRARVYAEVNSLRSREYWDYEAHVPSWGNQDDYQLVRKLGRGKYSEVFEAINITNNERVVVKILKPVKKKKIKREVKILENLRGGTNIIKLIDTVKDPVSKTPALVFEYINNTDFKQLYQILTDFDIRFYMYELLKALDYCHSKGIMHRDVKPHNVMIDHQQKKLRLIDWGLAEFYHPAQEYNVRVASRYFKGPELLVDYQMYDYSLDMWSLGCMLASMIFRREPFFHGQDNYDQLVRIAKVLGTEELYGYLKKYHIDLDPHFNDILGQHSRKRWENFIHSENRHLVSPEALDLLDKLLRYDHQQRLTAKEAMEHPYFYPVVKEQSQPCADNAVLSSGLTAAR
T21 sequence (Q9P289 whole entry): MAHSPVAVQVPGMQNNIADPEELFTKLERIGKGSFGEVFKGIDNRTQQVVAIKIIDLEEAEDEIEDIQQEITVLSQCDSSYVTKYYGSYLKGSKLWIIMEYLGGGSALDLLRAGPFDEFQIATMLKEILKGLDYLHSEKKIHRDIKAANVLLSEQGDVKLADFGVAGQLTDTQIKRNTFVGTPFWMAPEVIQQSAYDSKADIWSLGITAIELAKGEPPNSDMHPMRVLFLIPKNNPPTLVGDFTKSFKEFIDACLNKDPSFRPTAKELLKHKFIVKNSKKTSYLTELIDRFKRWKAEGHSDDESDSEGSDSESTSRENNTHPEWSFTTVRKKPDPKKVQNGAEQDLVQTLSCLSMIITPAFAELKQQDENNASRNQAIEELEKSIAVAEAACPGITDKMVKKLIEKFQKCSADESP

Q: What does the source list for Cc1ccc(NC(=O)c2ccc(CN3CCN(C)CC3)c(C(F)(F)F)c2)cc1-c1cnc2sc(N)nc2c1 [6r]?
A: inhibition at 1 µM (ITK): 3.8%; inhibition at 1 µM (ERK7/MAPK15): 4.2%; inhibition at 1 µM (MKK6): 6.6%; inhibition at 1 µM (YES/YES1): 77%; inhibition at 1 µM (ERK2/MAPK1): 13.5%; inhibition at 1 µM (EPHA8): 72.3%; inhibition at 1 µM (HIPK4): 8.7%; inhibition at 1 µM (PIM3): 3.4%; inhibition at 1 µM (ROCK1): 0.2%; inhibition at 1 µM (FLT3): 0%; inhibition at 1 µM (AURORA B): 0%; inhibition at 1 µM (SRPK2): 9%; inhibition at 1 µM (MELK): 17.1%; inhibition at 1 µM (NEK5): 0%; inhibition at 1 µM (DLK/MAP3K12): 0%; inhibition at 1 µM (NEK9): 0%; inhibition at 1 µM (CDK1/cyclin B): 0%; inhibition at 1 µM (SNRK): 0%; inhibition at 1 µM (CK2a2): 1%; inhibition at 1 µM (CDK3/cyclin E2): 12.4%; inhibition at 1 µM (MST4): 15.7%; inhibition at 1 µM (EPHB2): 38.9%; inhibition at 1 µM (PDGFRa): 96.7%; inhibition at 1 µM (STK22D/TSSK1): 14.9%; inhibition at 1 µM (CHK1): 9.3%; inhibition at 1 µM (TIE2/TEK): 24.4%; inhibition at 1 µM (PKCa): 4.2%; inhibition at 1 µM (MEK2): 7.1%; inhibition at 1 µM (FLT4/VEGFR3): 77.8%; inhibition at 1 µM (NEK6): 1%; inhibition at 1 µM (CAMK1a): 8%; inhibition at 1 µM (RON/MST1R): 4.5%; inhibition at 1 µM (TXK): 16.8%; inhibition at 1 µM (CK1G3): 32%; inhibition at 1 µM (IGF1R): 0%; inhibition at 1 µM (MINK/MINK1): 0%; inhibition at 1 µM (EPHA6): 39.9%; inhibition at 1 µM (HGK/MAP4K4): 0%; inhibition at 1 µM (CDK9/cyclin T2): 0%; inhibition at 1 µM (PKAcg): 29.2%; inhibition at 1 µM (CDK3/cyclin E): 14.3%; inhibition at 1 µM (P38a/MAPK14): 96.5%
